Experimental data: patent US4396614A, “Novel steroids” (Uclaf; Roussel, priority 1980, dated 1983)

Key:
aldosterone monoacetate = test: Antialdosterone activity: diuresis test in surrenalectomized rats (Kagawa/Marcus); format: in vivo, rat; details: surrenalectomized male Sprague Dawley rats, 4 hours urine collection
Protocol: The study was effected by a test inspired by Kagawa [P.S.E.B.M., Vol. 99 (1958), p. 705] and Marcus [Endocrinology, Vol. 50 (1952), p. 286] in which male rats of the Sprague Dawley SPF 1FFA CREDO strain weighing 180 g were surrenalectomized 7 days before diuresis while anestesized with Imalgene (Ketamine) intraperitoneally at a dose of 100 mg/kg. After the operation and from the night before the start of the test, the rats received physiological serum as drinking water and the animals were held without food or drink for 17 hours before diuresis and the physiological serum was replaced by water containing 5% glucose. The test products were orally administered before placing them in a cage and at the moment of diuresis, the animals received intraperitoneally a hydrosaline surcharge of 5 ml per rat of 9.permill. physiological serum and subcutaneously 1 μg/kg of aldosterone monoacetate in 2.5% alcoholic solution.
The rats were placed in pairs in a diuresis cage without food or drink for 4 hours and at this time, a forced emission was induced by pressure against the bladder and the volume of recovered urine was measured. After careful rinsing of the cages and the glass, the urine volume was adjusted to 50 ml and this solution was treated to determine the amount of potassium and sodium in the urine by flame photometry in an autoanalyszer. […] 125-132]. […]

[1] = target: T1, androgen hormonal receptor of prostate cytosol (Rattus norvegicus, UniProt P15207); test: Androgenic activity: hormonal receptor method of Raynaud, displacement of tritiated 17α-methyl-Δ^4,9,11-estratriene-17β-ol-3-one (Product R) in prostate cytosol; format: binding; details: prostate cytosol of castrated male rats, incubated at 0° C. for 2 hours
T1 construct: The homogenate was centrifuged at 105,000 g per hour and the surnageant or cytosol was adjusted to a dilution of 1/5; from tissue; host or cells: prostate cytosol of male rats castrated 24 hours earlier
T1 sequence (P15207 1-902): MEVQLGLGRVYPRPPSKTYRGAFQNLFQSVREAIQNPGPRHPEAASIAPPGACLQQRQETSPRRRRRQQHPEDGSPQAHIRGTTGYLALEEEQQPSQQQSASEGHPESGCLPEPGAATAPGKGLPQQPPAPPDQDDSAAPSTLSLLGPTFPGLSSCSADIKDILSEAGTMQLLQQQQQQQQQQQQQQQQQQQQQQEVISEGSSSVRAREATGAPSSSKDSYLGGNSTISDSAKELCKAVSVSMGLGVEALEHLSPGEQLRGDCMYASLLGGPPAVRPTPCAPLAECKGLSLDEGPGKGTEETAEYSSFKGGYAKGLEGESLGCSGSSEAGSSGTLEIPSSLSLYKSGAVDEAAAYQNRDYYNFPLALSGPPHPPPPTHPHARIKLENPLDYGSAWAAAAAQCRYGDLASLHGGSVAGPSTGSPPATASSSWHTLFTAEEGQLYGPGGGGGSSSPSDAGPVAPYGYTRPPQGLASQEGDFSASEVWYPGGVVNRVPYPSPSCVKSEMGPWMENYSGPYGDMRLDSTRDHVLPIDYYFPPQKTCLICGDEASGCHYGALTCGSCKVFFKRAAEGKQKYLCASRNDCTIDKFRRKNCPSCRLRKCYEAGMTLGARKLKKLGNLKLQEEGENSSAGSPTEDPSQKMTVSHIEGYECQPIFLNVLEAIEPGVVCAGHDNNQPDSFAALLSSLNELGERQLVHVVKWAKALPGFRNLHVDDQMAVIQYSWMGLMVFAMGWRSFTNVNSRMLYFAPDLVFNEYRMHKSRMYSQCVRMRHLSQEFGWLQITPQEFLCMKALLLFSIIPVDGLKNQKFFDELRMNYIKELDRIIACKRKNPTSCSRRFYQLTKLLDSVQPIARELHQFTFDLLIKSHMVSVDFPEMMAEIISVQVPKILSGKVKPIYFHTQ
Protocol: The latter was homogenized in a buffered solution of 10 mm of tromethamine, 0.25 M of saccharose and a pH of 7.4 with hydrochloric acid. The homogenate was centrifuged at 105,000 g per hour and the surnageant or cytosol was adjusted to a dilution of 1/5 (weight/volume). The resulting solution was incubated at 0° C. for 2 hours in tubes with the same volume of cytosol with a fixed concentration of tritiated 17α-methyl-Δ^4,9,11 - estratriene-17β-ol-3-one (designated as tritiated Product R) in the presence or not of an increasing concentration of radioinactive 17α-methyl-Δ^4,9,11 -estratriene-17β-ol-3-one (designated as cold product R) or the test product. […] The plots were the curves representing the percentage of tritiated product R as a function of the log of the concentration of cold product R or the test product of the I50 straight line parallel to the axis of the abcisses and ordinates.
B/T=(B/T Max.+B/T Min.)/2
B/T max. is the percentage of tied tritiated product R when the product is not added and B/T min, is the percentage of tied tritiated product R when the maximum amount of cold product R is added.

CCC[C@@H]1CC2=CC(=O)C=C[C@]2(C)[C@H]2CC[C@@]3(C)[C@@H](CC[C@@]3(O)CCC(=O)O)[C@H]12 [Example 10, Potassium 7α-propyl-17α-Δ^1,4-pregnadiene-17β-ol-3-one-21-carboxylate]
percentage of inhibition of the activity of 1 μg/kg of aldosterone monoacetate (log of ratio sodium concentration/potassium concentration in urine) (aldosterone monoacetate; 0.4 mg/kg orally): 30% | percentage of inhibition of the activity of 1 μg/kg of aldosterone monoacetate (log of ratio sodium concentration/potassium concentration in urine) (aldosterone monoacetate; 2 mg/kg orally): 80% | ARL (relative affinity = 100×(CT/CX)) [1]: 0.02
